Series [1] relates to IFN-γ. Description: Plasma cytokine analysis (ELISA) in EAE mice: IFN-γ. The series is classed as in vivo, SJL/J mice.
Procedure: (§2) Blood samples were taken from each mouse via mandibular bleeds (˜100 uL) on days 0, 6, 12, 18, 25. To ensure there was enough sample to perform ELISA cytokine testing blood from, two mice within the same group was pooled at each time point for a total of four samples per group. Samples were collected in heparin-containing tubes and centrifuged to separate red blood cells. Plasma was collected and sent for cytokine analysis to the Cytokine Core Laboratory at the University of Maryland. The cytokines analyzed were IL-2, IL-4, IL-10, IL-17, TNF-α, and TGF-β.
Series [2] concerns EAE model induced in SJL/J mice. Description: Suppression of EAE by SAgAs and NP-Arrays (Example 1). The series is classed as in vivo. The note with it: PLP conc. 100 nMol (100* for LABL-only arrays); s.c. days 4, 7, 10. How it is done: (§1) Induction of EAE and Therapeutic Study.
SJL/J (H-2s) female mice, 4-6 weeks old, were purchased from The Jackson Laboratory and housed under specified, pathogen-free conditions at The University of Kansas. All protocols involving live mice were approved by the Institutional Animal Care and Use Committee. Mice were immunized subcutaneously (s.c) with […] of PLP139-151 in a 0.2 mL emulsion composed of equal volumes of phosphate-buffered saline (PBS) and complete Freund's adjuvant (CFA) containing killed Mycobacterium tuberculosis strain H37RA (final concentration of 4 mg/mL; Difco). The PLP139-151/CFA was administered to regions above the shoulders and the flanks (total of four sites; 50 μL at each injection site). In addition, 200 ng/100 μL of pertussis toxin (List Biological Laboratories Inc.) was injected intraperitoneally (i.p.) on the day of immunization (day 0) and 2 days post-immunization. The mice received s.c. injections of each sample, equivalent to 100 nMol PLP/100 μL, on days 4, 7, 10. All NP samples were sonicated to disperse NPs before injection. For HA samples and controls, 100 μL of each vehicle was injected. […] Body weight was also measured daily.
Statistical differences were determined by comparing treated groups to the negative control (PBS) for clinical disease score and body weight. […]
The SAgAs and NP-Arrays were evaluated in an EAE model induced in SJL/J mice. […]

The subject of series [3] is TNF-α. The experiment in a line: Plasma cytokine analysis (ELISA) in EAE mice: TNF-α. Format: in vivo, SJL/J mice. The following applies: day 6; PBS 1.8 pg/mL.
Procedure: as §2
Series [4] relates to IL-17. The experiment in a line: Plasma cytokine analysis (ELISA) in EAE mice: IL-17. Format: in vivo, SJL/J mice.
Procedure: as §2
The subject of series [5] is EAE model induced in SJL/J mice. Description: Suppression of EAE by SAgAs: cell adhesion target and size (Example 2). Format: in vivo. The note with it: PLP conc. 100 nMol as printed in Table 11. How it is done:
as §1
Four-6 week-old SJL/J female mice were immunized subcutaneously (s.c) with […] of PLP139-151 in a 0.2 mL emulsion composed of equal volumes of complete Freund's adjuvant (CFA) containing killed Mycobacterium tuberculosis strain H37RA (final concentration of 4 mg/mL; Difco) and phosphate-buffered saline (PBS) containing PLP. The PLP139-151/CFA emulsion was administered to regions above the shoulders and the flanks (total of four sites; 50 μL at each injection site). Additionally, 200 ng/100 μL of pertussis toxin (List Biological Laboratories Inc.) was injected intraperitoneally (i.p.) on the day of immunization (day 0) and 2 days post-immunization. […] One hundred μL of each vehicle was injected for all samples and controls. […] Body weight was also measured daily.
Statistical differences were determined by comparing treated groups to the negative control (PBS) for clinical disease score and body weight. […] For individual clinical day scores and cytokine measurements T test was employed. All analyses were performed using GraphPad Software (GraphPad Software Inc.).
Efficacy of SAgAs was evaluated in the EAE model induced in SJL/J mice. The study design is outlined in Table 11 below. Typically disease onset occurs at approximately day 8 and progresses to remission around day 20. […]

Details of series [6]: species or system mice. The note with it: mouse, in vivo, sc. How it is done:
In Vivo Imaging. In vivo imaging was completed using the Maestro Imaging Suite. Animals were anesthetized using an isoflurane vaporizer and IR-820 labeled SAgA was injected s.c. at the base of the neck. After injection images were taken of the animal's top, left, bottom, and right side by rotating the animal in the exposure pane. The animal was imaged at defined time points over a 24 hour period to track the drainage and clearance of the SAgA from the injection site.

Non-standard residues stand in square brackets, D forms with d. No end group written: not given here. Ahx = NCCCCCC(=O)O Bounds are passed on as bounds.

Regarding “HSLGKWLGHPDKF-AcGAcGAc-ITDGEATDSG (HSLGKWLGHPDKF[Ahx]G[Ahx]G[Ahx]ITDGEATDSG) [PLP-BPI]”, the “reduction in peak expression of IFN-γ compared to PBS controls” value in series [1] (Day 6) is given as around 40%. Further, in series [1] (day 6, PBS 72 pg/mL), the “average plasma concentration of IFN-γ” value was determined as 31 pg/mL. In addition, in series [2], the “Clinical Data Significance compared to PBS: % Weight loss” value is listed as “Days 12-16, 18-22, p < 0.01” and the “Clinical Data Significance compared to PBS: Score” value is listed as “Day 12, p < 0.001”. The “plasma TNF-α peak concentration” value in series [3] amounted to 3.1 pg/mL. The “plasma IL-17 concentration” value in series [4] (day 6, PBS 23 pg/mL) amounted to 40 pg/mL. Moreover, the “plasma IL-17 concentration” value in series [4] (day 12) stood at 31 pg/mL. For the same substance, the “Clinical Significance vs PBS: % Weight loss” value in series [5] is “p < 0.05, Days 16”. For the same substance, the “Clinical Significance vs PBS: Score” value in series [5] (s.c. days 4, 7, 10) is given as “p < 0.05, Days 14 & 17”.
With Hyaluronic acid [70 kDa HA], in series [6], the “time of drainage/clearance of IR820-labeled material from the injection site” value is listed as 500 min.
As for Hyaluronic acid [HA], the “time of drainage/clearance of IR820-labeled material from the injection site” value in series [6] was at most 1440 min.

The values are drawn from patent US10881718B2, “Bifunctional conjugate compositions and associated methods” (priority 2010, dated 2021).
